Experiments:
[1] = system: SK-OV-3 cells; assay: Cell uptake of TR-TPGnRH, SK-OV-3; format: cell-based, human
Protocol: (§1) The U-87 MG and SK-OV-3 cells were seeded at 20,000 cells/cm^2 in a 12-well plate (76,000 cells per well). Cells were allowed to attach overnight, and then the media was replaced by fresh media (900 μL) containing TR-TPGnRH (50 μg mL^−1 in PBS, 100 μL, pH 7.4). Subsequently, cells were either incubated at 4 or 37° C. for 1 and 4 hours. At the end of each time-point, cells were washed with HBSS twice to wash the free fibres, incubated with 500 μL TrypLE Enzyme at 37° C. for 3 minutes, and then collected by centrifugation at 1,000 rpm for 5 minutes using a C-28A centrifuge. Cells were then re-suspended in PBS (200 μL) and analysed in BD FACSCalibur™ flow cytometer acquiring at least 10,000 events. Unstained cells were used as a control in the flow cytometry settings.

[2] = system: U-87 MG cells; assay: Cell uptake of TR-TPGnRH, U-87 MG; format: cell-based, human
Protocol: as §1

[3] = Permeability across in vitro blood-brain barrier model
Protocol: (§2) In order to test the permeability of TPGnRH nanofibers across the blood-brain barrier (BBB), a static contact co-culture was set up according to a previous method^7. Briefly, human astrocytes (SC-1800, 25,000 cells/well) were seeded on the abluminal side of a 24-well plate Transwell polycarbonate membrane (3 μm of a pore size, Corning Star, Deeside, UK) coated with human fibronectin. Cells were allowed to attach for 3 days, and then human brain microvascular endothelial cells (hCMEC/D3, 75,000 cells/well) were seeded on the luminal side of the Transwell and co-cultured with astrocytes for five days with a daily change of the media. Transendothelial resistance was measured using EVOM voltohmmeter (World Precision Instruments, Berlin, Germany).
(§3) Transwells were washed with HBSS and immersed into HBSS (600 μL in abluminal side). […] Samples (100 μL) were collected from the abluminal side at specific time-points, and fresh HBSS (100 μL) was used to replace the volume from the abluminal compartments. […] PAX was analysed using reverse phase-HPLC with the gradient method described on Table 2. TR-TPGnRH was quantified in POLARstar Omega plate reader spectrophotometer with λexc 596 and λem 615 nm. The permeability coefficient (Papp) was determined using the equation: […]
(§4) ΔQr, is the flux of drug along time (μg mL^−1), Vr is the volume of the abluminal side (mL), A is the area of the Transwell membrane, C0 is the concentration of drug in the luminal side, and 60, the converser factor from minutes to seconds^8.

[4] = system: hCMEC/D3 endothelial cells; assay: Cell uptake in endothelial cells (flow cytometry); format: cell-based, human; conditions: 4 hours of incubation, 50 μg mL^−1
Protocol: TPGnRH was labelled with Texas Red (TR) according to the manufacturer's protocol. Endothelial cells were seeded (227,000 cells/cm^2) in 24-well plates, allowed to attach for 24 hours, and then media was replaced by fresh media containing TR-TPGnRH at 50 μg mL^−1 in PBS. Cells were either incubated at 4 or 37° C. for 1 and 4 hours. At the end of a time-point, cells were washed with HBSS to remove the free nanofibers, incubated with 500 μL of TrypLE Express Enzyme and collected by centrifugation. The cell pellet was then re-suspended in PBS, and cells were analysed in BD FACS Calibur™ flow cytometer (BD Biosciences, Wiltshire, UK) acquiring at least 10,000 events. Data were analysed in FlowJo® Software 10.1. Unstained cells were used as a control in the flow cytometry settings.

[5] = system: in vitro BBB model (hCMEC/D3 and SC-1800 co-culture); assay: in vitro
Protocol: as §2, §3, §4

Row | Molecule | Cell uptake ([1]; SK-OV-3, 1 Hour, 4° C.) | Cell uptake ([1]; SK-OV-3, 1 Hour, 37° C.) | Cell uptake ([1]; SK-OV-3, 4 Hours, 4° C.) | Cell uptake ([1]; SK-OV-3, 4 Hours, 37° C.) | Cell uptake ([2]; 1 Hour, 4° C.) | Cell uptake ([2]; 1 Hour, 37° C.) | Cell uptake ([2]; 4 Hours, 4° C.) | Cell uptake ([2]; 4 Hours, 37° C.) | Papp A→B [3] | TR-TPGnRH+ cells ([4]; 4° C.) | TR-TPGnRH+ cells ([4]; 37° C.) | Papp [5]
1 | CCCCCCCCCCCCCCCC(=O)Oc1ccc(C[C@H](NC(=O)[C@H](CO)NC(=O)[C@H](Cc2c[nH]c3ccccc23)NC(=O)[C@H](Cc2c[nH]cn2)NC(=O)[C@H](CCC(=O)O)NS(=O)(=O)c2ccc(-c3c4cc5c6c(c4[o+]c4c7c8c(cc34)CCCN8CCC7)CCCN6CCC5)c(S(=O)(=O)[O-])c2)C(=O)NCC(=O)N[C@@H](CC(C)C)C(=O)N[C@@H](CCCNC(=N)N)C(=O)N2CCC[C@H]2C(=O)NCC(N)=O)cc1 [Texas Red-TPGnRH] | 10.02 ± 0.52 | 13.35 ± 0.53 | 52.47 ± 3.34 | 49.36 ± 4.66 | 20.51 ± 3.10 | 32.64 ± 5.04 | 52.36 ± 10.20 | 91.12 ± 1.11 | 6 ×10⁻⁶ cm/s | 0.18±0.05% | 68.43±0.85% | 
2 | Texas Red [Free Texas Red] |  |  |  |  |  |  |  |  |  |  |  | 111.78 ± 24.30 ×10^−6 cm s^−1

From patent US20210038730A1, “PEPTIDE NANOFIBERS” (UNIVERSITY OF PORTSMOUTH HIGHER EDUCATION CORPORATION, priority 2018, published 2021)
